Results reported in patent publication US20260176300A1, “N-ARYLPYRAZOLE NOD2 AGONISTS AS PROMOTERS OF IMMUNE CHECKPOINT INHIBITOR THERAPY” (THE SCRIPPS RESEARCH INSTITUTE, priority 2022, published 2026).
Entries after “also recorded” stand apart in the source; their conditions may differ.

How the values were obtained:
[1] = tested on: human peripheral mononuclear blood cells (PBMCs); assay: Cytokine release assay in primary human PBMCs; format: cell-based; details: 10 μM, 24 h
Experimental: (§1) FIG. 3(A-H). NOD2 agonist TT030 activates cytokine production in vitro and improves immune checkpoint inhibitor treatment of tumor growth in vivo. A-D, Measurements of secreted cytokine levels from human peripheral mononuclear blood cells (PMBCs) treated with the indicated compounds for 24 h without or with lipopolysaccharide (LPS). E, Structures of TT030 and its enantiomer (TT030-ent). F, Activation of NOD1- and NOD2-expressing HEK-293T cells with the indicated compounds. C12-iE-DAP is a lipophilic version of the NOD1 agonist, iE-DAP. G, Growth profiles of B16-F10 subcutaneous tumors in wild-type C57BL/6 mice treated with 100 μg α-PD-L1 and 100 μg of the indicated compounds every other day starting at Day 7. H, Growth profiles of B16-F10 subcutaneous tumors in wild-type or Nod2^−/− C57BL/6 mice treated with 100 μg α-PD-L1 and 100 μg TT030 every other day starting at Day 7. Cytokine secretion assays and NOD activation assays were analyzed using a one-way ANOVA with Dunnett's multiple comparisons test compared to the DMSO control. Longitudinal tumor growth assays were analyzed using linear mixed-effects model analysis on the log transformed data. ns=not significant, *P<0.05, **P<0.01, ***P<0.001, ****P<0.0001.
FIG. 7(A-B). NOD2 agonist TT030 activates cytokine production in vitro. A-B, Measurements of secreted cytokine levels from human peripheral mononuclear blood cells (PMBCs) treated with the indicated compounds for 24 h without or with lipopolysaccharide (LPS). Cytokine secretion assays and NOD activation assays were analyzed using a one-way ANOVA with Dunnett's multiple comparisons test compared to the DMSO control. *P<0.05, **P<0.01.
Cytokine release assay. Human PMBCs were obtained from whole blood donated by healthy individuals via the Scripps Normal Blood Donor Service. Whole blood was diluted 1:1 with phosphate-buffered saline (PBS) containing 2% FBS and then layered onto Lymphoprep (STEMCELL Technologies, 07851) in SepMate-50 isolation tubes (STEMCELL Technologies, 85480). The discontinuous gradient was centrifuged for 10 min at 1,200×g, and mononuclear cells were removed by pouring off. Mononuclear cells were then resuspended in PBS+2% FBS and centrifuged for 3 min at 200×g twice before further use. Washed mononuclear cells were then aliquoted at 5×10^5 cells per well of a 48-well plate with 300 μL RPMI containing 10% FBS (complete RPMI). Cells were then diluted with 100 μL complete RPMI containing 50 μM of the test compound (10 μM final concentration). Then, 100 μL complete RPMI (-LPS) or 100 μL complete RPMI containing […] LPS (+LPS, 10 ng mL^−1 final concentration) was added. Cells were incubated overnight at 37° C. in 5% CO2, and conditioned medium was harvested and centrifuged for 5 min at 500×g to remove residual cells. Samples were used directly for cytokine analysis with the LEGENDPlex Human Inflammatory Panel 1 (BioLegend, 740809) according to the manufacturer's protocol. For analysis, 25 μL of the conditioned medium was used for −LPS samples, and 12.5 μL was used for the +LPS samples. On-bead ELISA readouts were measured using the standard PE and APC detection filter parameters on a ZE5 flow cytometer (Bio-Rad; 405, 488, 561, and 640 lasers) in the Scripps Research Flow Cytometry Core Facility. Raw data files were then imported into the LEGENDPlex Cloud Data Analysis software suite (BioLegend) and analyzed using the manufacturer's pre-set parameters.

[2] = tested on: B16-F10 subcutaneous tumors; assay: B16-F10 tumor growth assay with anti-PD-L1 co-treatment; format: in vivo, mice; details: for B16 tumor growth over time: wild-type C57BL/6 mice, 100 μg α-PD-L1 and 100 μg compound i.p. every other day
Experimental: as §1
Animals. Specific pathogen-free, eight-week old male C57BL/6J (B6, 000664) and B6.129S1—Nod2^tm1Flv/J (Nod2^−/−, 005763 from Flavell Lab, Yale School of Medicine) were obtained from The Jackson Laboratory. Animals were housed in autoclaved caging with SaniChip bedding and enrichment for nest building on a 12-hour light/dark cycle. Animals were provided gamma-irradiated chow (LabDiet, 5053) and sterile drinking water ad libitum. Animal care and experiments were conducted in accordance with NIH guidelines and approved by the Institutional Animal Care and Use Committee at Scripps Research (Protocol AUP-21-095).
Tumor growth assay. B16-F10 cells were subcultured on the day prior to harvesting for tumor inoculation. On the day of injection, cells were harvested using TrypLE Express, washed and resuspended in cold PBS, and counted with a hemocytometer. Cells were then resuspended at 2×10^6 cells mL^−1 in PBS and mixed 1:1 with Matrigel matrix (Corning; growth factor reduced, 356231). Cell suspensions were kept on ice prior to injection. Animals were anesthetized using 3% isoflurane, and their right flank was shaved with hair clippers. Animals were then subcutaneously injected with 100 μL of the cell suspension on their mid-right flank (1×10^5 cells per injection). Once tumors were established at roughly 25-100 mm^3, tumor volume was measured every other day. Digital calipers were used to measure the length and width of each tumor, and tumor volume was calculated as length×[…], where width was the smaller of the two measurements. […]

Row | Structure (SMILES) | IFNγ levels ([1]; without or with LPS) | interleukin-1 beta (IL-1B) in the medium ([1]; without or with LPS) | tumor necrosis factor alpha (TNFα) in the medium ([1]; without or with LPS) | B16 tumor growth over time [2] | IL-12p70 secretion ([1]; with and without LPS) | IL-18 production ([1]; without or with LPS) | IL-23 production ([1]; without or with LPS) | Anti-tumor activity in Nod2−/− mice ([2]; Nod2−/− vs. wild-type C57BL/6 mice, 100 μg α-PD-L1 and 100 μg TT030 every other day)
1 | CC(=O)N[C@H]1C(O)O[C@H](CO)[C@@H](O)[C@@H]1O[C@H](C)C(=O)N[C@@H](C)C(=O)N[C@H](CCC(=O)O)C(N)=O (stereo partly drawn) [MDP, (4R)-4-((2S)-2-((2R)-2-(((3R,4R,5S,6R)-3-acetamido-2,5-dihydroxy-6-(hydroxymethyl)tetrahydro-2H-pyran-4-yl)oxy)propanamido)propanamido)-5-amino-5-oxopentanoic acid, reference compound] | increased | significant increase | significant increase | significantly inhibited tumor growth | – | – | – | –
2 | CCOC(=O)CC[C@@H](NC(=O)[C@@H](NC(=O)c1c(C)nn(-c2cc[nH]c(=O)c2)c1C)C(C)C)C(=O)OCC [TT030, Diethyl (3,5-dimethyl-1-(2-oxo-1,2-dihydropyridin-4-yl)-1H-pyrazole-4-carbonyl)-L-valyl-D-glutamate] | increased | equivalent concentrations | equivalent concentrations | anti-tumor activity was also observed; also recorded: equivalent anti-tumor activity as MDP | increase | production | production | loss in the anti-tumor activity
